According to patent US5707615A, “Method of treating HIV infections with anti-viral formulations” (Merrell Pharmaceuticals Inc., priority 1997, dated 1998):

Legend:
MT4 cells = experiment: Toxicity to MT4 cells (TD50, Table IV, MTT); type: cell-based; conditions: human, mt4 cells, 168 h
Description: (§1) Various oligomers were dissolved in RPMI and were then assayed for anti-HIV activity by making doubling dilutions of the solutions across a 96 well microtitre plate. To each well were then added 5×10^4 cells and 100 TCID50 of virus and the plates incubated at 37° C. for 7 days. MTT was added to each well and the plates incubated for a further 2 hours. The blue formazan crystals were dissolved using acidic isopropanol, and the absorbance measured at 540 nm.

HIV-I, GB8 = experiment: Ability to prevent syncytia formation and expression of P24 viral core antigen using JM cells and GB8 virus strain (Example I); type: cell-based; conditions: for P24 % CONTROL: 4320 min
Description: The virus was first incubated with an oligomer for 15 minutes and then the cells were added. After 2 hours adsorption, the virus innoculum was removed and the cells were washed three times to remove traces of input virus. Antiviral activity was determined after 3 days incubation by plotting the mean number of syncytia found in quadruple cultures against log10 concentration of anionic polymer or of other test compounds. The potency of an oligomer was also measured by assaying viral core antigen (P24 test-Abbott) in the supernatant fluid. Heparin, dextran sulfate, rs CD4, ATZ and/or ddC data, when included in any of the following Tables, are provided as positive controls.

HIV strain RF = experiment: Ability to prevent virus-induced cell death using MT4 cells and strain RF (Example III); type: cell-based; conditions: MT4 cells, 7 days, MTT
Description: as §1

HIV-I (GB8) = experiment: Pretreatment of JM cells and block of HIV-I (GB8) infection (Example IV); conditions: pretreated overnight at 20 μg/mL
Description: JM cells were pretreated overnight at 37° C. with different compounds at 20 μg/mL or left untreated. The cells were washed 3 times in RPMI medium and then infected with HIV-I (GB8) for 2 hours at room temperature. The cells were again washed 3 times in RPMI medium and resuspended in fresh medium prior to being distributed into duplicate wells and incubated at 37° C. After 2 days syncytia were scored and the cell free supernatant fluid harvested and assayed for P24 viral core antigen using the Coulter™ HIV antigen assay.

[1] = in vivo; cited from earlier work
[2] = system: viral protein which is responsible for cell recognition; conditions: cited from earlier work
GB8 virus in JM cells = experiment: Virus infection of JM cells with GB8 in the presence of test compounds: syncytia and P24 (Example II); conditions: for SYNCYTIA % / P24 %: % of control; for SYNCYTIA %: 2880 min; for P24 %: 5760 min
Description: Virus infection of JM cells was carried out in the presence of different concentrations of test compounds. JM cells (1×10^5) and 50-100 syncytial forming units of virus (GB8) were added to duplicate wells of a tissue culture plate containing 1 mL volumes of growth medium with or without drug. The plate was incubated for 2 days at 37° C. and then scored for the presence of syncytia. At the same time the cells were washed and the growth medium replaced. After a further two days incubation, the cell free supernatant fluids were harvested and assayed for levels of P24 viral core antigen using the Coulter™ HIV Antigen assay.

Substance: Heparin [reference compound]
- TD50 (MT4 cells): > 100 µg/mL
- P24 (HIV-I, GB8; 0.6 μg/mL): 44570 pg/mL
- P24 % CONTROL (HIV-I, GB8; 0.6 μg/mL): 0.1%
- P24 (HIV-I, GB8; 2.5 μg/mL): 25775 pg/mL
- P24 % CONTROL (HIV-I, GB8; 2.5 μg/mL): < 0.1%
- P24 (HIV-I, GB8; 5.0 μg/mL): 2500 pg/mL
- P24 % CONTROL (HIV-I, GB8; 5.0 μg/mL): < 0.1%
- SYNCYTIA (HIV-I, GB8; 5.0 μg/mL, after 3 days): 0
- ED50 (HIV strain RF): 4.6 µg/mL
- P24 (HIV-I (GB8)): 29090 pg/mL
- MEAN SYNCYTIA (HIV-I (GB8); 2 days): 136
- P24 % (HIV-I (GB8); % of control, 2880 min): 103%
- SYNCYTIA % (HIV-I (GB8); % of control, 2880 min): 114%
- side effects [1]: hemorrhage and increased clot formation time as well as thrombocytopenia
- inhibition of host cell infection [2]: limited inhibition of host cell infection
- SYNCYTIA (2 DAYS) MEAN (GB8 virus in JM cells; Table II, 0.01 μg/mL): 38
- SYNCYTIA % (GB8 virus in JM cells; Table II, 0.01 μg/mL): 90%
- SYNCYTIA (2 DAYS) MEAN (GB8 virus in JM cells; Table II, 0.03 μg/mL): 29
- SYNCYTIA % (GB8 virus in JM cells; Table II, 0.03 μg/mL): 69%
- SYNCYTIA (2 DAYS) MEAN (GB8 virus in JM cells; Table II, 0.1 μg/mL): 24
- SYNCYTIA % (GB8 virus in JM cells; Table II, 0.1 μg/mL): 57%
- P24 (GB8 virus in JM cells; Table II, 0.3 μg/mL): 4.1 × 10^4 units/mL
- SYNCYTIA (2 DAYS) MEAN (GB8 virus in JM cells; Table II, 0.3 μg/mL): 22
- SYNCYTIA % (GB8 virus in JM cells; Table II, 0.3 μg/mL): 52%
- P24 % (GB8 virus in JM cells; Table II, 0.3 μg/mL): 11%
- SYNCYTIA (2 DAYS) MEAN (GB8 virus in JM cells; Table II, 1 μg/mL): 2
- SYNCYTIA % (GB8 virus in JM cells; Table II, 1 μg/mL): 5%
- P24 % (GB8 virus in JM cells; Table II, 1 μg/mL): 8%
- P24 (GB8 virus in JM cells; Table II, 3 μg/mL): 1.7 × 10^4 units/mL
- SYNCYTIA (2 DAYS) MEAN (GB8 virus in JM cells; Table II, 3 μg/mL): 0
- SYNCYTIA % (GB8 virus in JM cells; Table II, 3 μg/mL): 0%
- P24 % (GB8 virus in JM cells; Table II, 3 μg/mL): 5%
- SYNCYTIA (2 DAYS) MEAN (GB8 virus in JM cells; Table II, 10 μg/mL): 0
- SYNCYTIA % (GB8 virus in JM cells; Table II, 10 μg/mL): 0%
- P24 % (GB8 virus in JM cells; Table II, 10 μg/mL): 3%
- P24 (GB8 virus in JM cells; Table III, 1 μg/mL): 211000 pg/mL
- SYNCYTIA MEAN (GB8 virus in JM cells; Table III, 1 μg/mL): 13
- SYNCYTIA % (GB8 virus in JM cells; Table III, 1 μg/mL): 19%
- P24 % (GB8 virus in JM cells; Table III, 1 μg/mL): 63%
- P24 (GB8 virus in JM cells; Table III, 10 μg/mL): 70700 pg/mL
- SYNCYTIA MEAN (GB8 virus in JM cells; Table III, 10 μg/mL): 0
- P24 % (GB8 virus in JM cells; Table III, 10 μg/mL): 21%
- P24 (GB8 virus in JM cells; Table III, 100 μg/mL): 989 pg/mL
- SYNCYTIA MEAN (GB8 virus in JM cells; Table III, 100 μg/mL): 0
- P24 % (GB8 virus in JM cells; Table III, 100 μg/mL): 0.3%
